Test results published in patent publication US8586573B2, “N-(Aminoheteroaryl)-1H-indole-2-carboxamide derivatives, and preparation and therapeutic application thereof” (Sanofi, priority 2006, dated 2013).

| melting point [°C] | SMILES |
| --- | --- |
| 204 to 206 | CC(C)(C)c1ccc2cc(C(=O)Nc3ccc(N4CCC4)nc3)n(Cc3cccc(F)c3)c2c1 [Compound 33, N-[6-(azetidin-1-yl)pyridin-3-yl]-6-tert-butyl-1-(3-fluorobenzyl)-1H-indole-2-carboxamide] |
| 198 to 200 | CC(C)Oc1ccc2cc(C(=O)Nc3ccc(N4CCC4)nc3)n(Cc3cccc(F)c3)c2c1 [Compound 34, N-[6-(azetidin-1-yl)pyridin-3-yl]-6-isopropyloxy-1-(3-fluorobenzyl)-1H-indole-2-carboxamide] |
| 258 to 260 | CS(=O)(=O)c1ccc2c(c1)cc(C(=O)Nc1ccc(N3CCC3)nc1)n2Cc1cccc(F)c1 [Compound 35, N-[6-(azetidin-1-yl)pyridin-3-yl]-5-methylsulphonyl-1-(3-fluorobenzyl)-1H-indole-2-carboxamide] |
| 256 to 258 | CN(C)c1ccc2cc(C(=O)Nc3ccc(N4CCC4)nc3)n(Cc3cccc(F)c3)c2c1 [Compound 36, N-[6-(azetidin-1-yl)pyridin-3-yl]-6-dimethylamino-1-(3-fluorobenzyl)-1H-indole-2-carboxamide] |
| 206 to 208 | CSc1ccc2cc(C(=O)Nc3ccc(N4CCC4)nc3)n(Cc3cccc(F)c3)c2c1 [Compound 37, N-[6-(azetidin-1-yl)pyridin-3-yl]-6-methylthio-1-(3-fluorobenzyl)-1H-indole-2-carboxamide] |
| 210 to 212 | O=C(Nc1ccc(N2CCC2)nc1)c1cc2ccc(F)cc2n1Cc1cccc(F)c1 [Compound 40, N-[6-(azetidin-1-yl)pyridin-3-yl]-6-fluoro-1-(3-fluorobenzyl)-1H-indole-2-carboxamide] |
| 218 to 220 | O=C(Nc1ccc(N2CCC2)nc1)c1cc2ccc(Cl)cc2n1Cc1cccc(F)c1 [Compound 42, N-[6-(azetidin-1-yl)pyridin-3-yl]-6-chloro-1-(3-fluorobenzyl)-1H-indole-2-carboxamide] |
| 226 to 228 | O=C(Nc1ccc(N2CCC2)nc1)c1cc2cc(Cl)ccc2n1Cc1cccc(F)c1 [Compound 43, N-[6-(azetidin-1-yl)pyridin-3-yl]-5-chloro-1-(3-fluorobenzyl)-1H-indole-2-carboxamide] |
| 328 to 330 | O=C(Nc1ccc(N2CCC2)nc1)c1cc2ccccc2n1Cc1cccc(F)c1 [Compound 44, N-[6-(azetidin-1-yl)pyridin-3-yl]-1-(3-fluorobenzyl)-1H-indole-2-carboxamide] |
| 246 to 248 | Cc1cccc2c1cc(C(=O)Nc1ccc(N3CCC3)nc1)n2Cc1cccc(F)c1 [Compound 45, N-[6-(azetidin-1-yl)pyridin-3-yl]-4-methyl-1-(3-fluorobenzyl)-1H-indole-2-carboxamide] |
| 228 to 230 | Cc1ccc2cc(C(=O)Nc3ccc(N4CCC4)nc3)n(Cc3cccc(F)c3)c2c1 [Compound 46, N-[6-(azetidin-1-yl)pyridin-3-yl]-6-methyl-1-(3-fluorobenzyl)-1H-indole-2-carboxamide] |
| 236 to 238 | Cc1ccc2c(c1)cc(C(=O)Nc1ccc(N3CCC3)nc1)n2Cc1cccc(F)c1 [Compound 47, N-[6-(azetidin-1-yl)pyridin-3-yl]-5-methyl-1-(3-fluorobenzyl)-1H-indole-2-carboxamide] |
| 204 to 206 | CC(C)c1ccc2c(c1)cc(C(=O)Nc1ccc(N3CCC3)nc1)n2Cc1cccc(F)c1 [Compound 48, N-[6-(azetidin-1-yl)pyridin-3-yl]-5-isopropyl-1-(3-fluorobenzyl)-1H-indole-2-carboxamide] |

More lines, now with the values behind:

| SMILES | melting point [°C] |
| --- | --- |
| COc1cc(N2CCCC2)ncc1NC(=O)c1cc2cc(F)ccc2n1Cc1ccncc1 [Compound 18, N-[4-methoxy-6-(pyrrolidin-1-yl)pyridin-3-yl]-5-fluoro-1-[(pyridin-4-yl)methyl]-1H-indole-2-carboxamide] | 225 to 226 |
| Cc1cc(Cn2c(C(=O)Nc3ccc(N4CCCC4)nc3)cc3cc(F)ccc32)ccn1 [Compound 19, N-[6-(pyrrolidin-1-yl)pyridin-3-yl]-5-fluoro-1-[(2-methylpyridin-4-yl)methyl]-1H-indole-2-carboxamide] | 213 to 215 |
| O=C(Nc1ccc(N2CC3CCC3C2)nc1)c1cc2cc(F)ccc2n1Cc1cccc(F)c1 (centres unmarked) [Compound 22, N-[6-(3-azabicyclo[3.2.0]hept-3-yl)pyridin-3-yl]-5-fluoro-1-(3-fluorobenzyl)-1H-indole-2-carboxamide] | 163 to 165 |
| O=C(Nc1ccc(N2CC(O)C2)nc1)c1cc2cc(F)ccc2n1Cc1cccc(F)c1 [Compound 24, N-[6-(3-hydroxyazetidin-1-yl)pyridin-3-yl]-5-fluoro-1-(3-fluorobenzyl)-1H-indole-2-carboxamide] | 199 to 200 |
| O=C(Nc1ccc(N2CCC2)nc1)c1cc2cc(C(F)(F)F)ccc2n1Cc1cccc(F)c1 [Compound 25, N-[6-(azetidin-1-yl)pyridin-3-yl]-5-trifluoromethyl-1-(3-fluorobenzyl)-1H-indole-2-carboxamide] | 222 to 224 |
| O=C(Nc1ccc(N2CCC2)nc1)c1cc2cc(F)ccc2n1Cc1ccncc1 [Compound 26, N-[6-(azetidin-1-yl)pyridin-3-yl]-1-[(pyridin-4-yl)methyl]-5-fluoro-1H-indole-2-carboxamide] | 212 to 214 |
| O=C(Nc1ccc(N2CC(O)C2)nc1)c1cc2cc(C(F)(F)F)ccc2n1Cc1cccc(F)c1 [Compound 29, N-[6-(3-hydroxyazetidin-1-yl)pyridin-3-yl]-1-(3-fluorobenzyl)-5-trifluoromethyl-1H-indole-2-carboxamide] | 194 to 196 |
| O=C(Nc1ccc(N2CC(O)C2)nc1)c1cc2ccc(C(F)(F)F)cc2n1Cc1cccc(F)c1 [Compound 30, N-[6-(3-hydroxyazetidin-1-yl)pyridin-3-yl]-1-(3-fluorobenzyl)-6-trifluoromethyl-1H-indole-2-carboxamide] | 253 to 255 |
| O=C(Nc1ccc(N2CCC2)nc1)c1cc2cc(F)ccc2n1Cc1ccccc1 [Compound 31, N-[6-(azetidin-1-yl)pyridin-3-yl]-5-fluoro-1-(benzyl)-1H-indole-2-carboxamide] | 208 to 210 |
| Cc1cc(C)c2cc(C(=O)Nc3ccc(N4CCC4)nc3)n(Cc3cccc(F)c3)c2c1 [Compound 32, N-[6-(azetidin-1-yl)pyridin-3-yl]-4,6-dimethyl-1-(3-fluorobenzyl)-1H-indole-2-carboxamide] | 234 to 236 |
| O=C(Nc1ccc(N2CCC2)nc1)c1cc2c(F)cccc2n1Cc1cccc(F)c1 [Compound 38, N-[6-(azetidin-1-yl)pyridin-3-yl]-4-fluoro-1-(3-fluorobenzyl)-1H-indole-2-carboxamide] | 214 to 216 |
| O=C(Nc1ccc(N2CCC2)nc1)c1cc2cccc(F)c2n1Cc1cccc(F)c1 [Compound 39, N-[6-(azetidin-1-yl)pyridin-3-yl]-7-fluoro-1-(3-fluorobenzyl)-1H-indole-2-carboxamide] | 244 to 246 |
| O=C(Nc1ccc(N2CCC2)nc1)c1cc2c(Cl)cccc2n1Cc1cccc(F)c1 [Compound 41, N-[6-(azetidin-1-yl)pyridin-3-yl]-4-chloro-1-(3-fluorobenzyl)-1H-indole-2-carboxamide] | 226 to 228 |
